Data published in ChEMBL document CHEMBL1139325, “Discovery of targeting ligands for breast cancer cells using the one-bead one-compound combinatorial method” (J Med Chem, 2009).
The source made the active and inactive calls.

What was measured:
Format in all cases: cell-based
K562 [1] = test: Decrease in binding affinity to integrin alpha3 Y186A mutant expressed in human K562 cells by flow cytometry
K562 [2] = test: Decrease in binding affinity to integrin alpha3 T162A mutant expressed in human K562 cells by flow cytometry
K562 [3] = test: Decrease in binding affinity to integrin alpha3 M164A mutant expressed in human K562 cells by flow cytometry
[4] = biological target: T1, Integrin alpha-6 (Homo sapiens) (UniProt P23229); test: Binding affinity to integrin alpha6 expressed in human K562 cells at 1 uM for 30 mins by flow cytometry
T1 sequence (whole entry): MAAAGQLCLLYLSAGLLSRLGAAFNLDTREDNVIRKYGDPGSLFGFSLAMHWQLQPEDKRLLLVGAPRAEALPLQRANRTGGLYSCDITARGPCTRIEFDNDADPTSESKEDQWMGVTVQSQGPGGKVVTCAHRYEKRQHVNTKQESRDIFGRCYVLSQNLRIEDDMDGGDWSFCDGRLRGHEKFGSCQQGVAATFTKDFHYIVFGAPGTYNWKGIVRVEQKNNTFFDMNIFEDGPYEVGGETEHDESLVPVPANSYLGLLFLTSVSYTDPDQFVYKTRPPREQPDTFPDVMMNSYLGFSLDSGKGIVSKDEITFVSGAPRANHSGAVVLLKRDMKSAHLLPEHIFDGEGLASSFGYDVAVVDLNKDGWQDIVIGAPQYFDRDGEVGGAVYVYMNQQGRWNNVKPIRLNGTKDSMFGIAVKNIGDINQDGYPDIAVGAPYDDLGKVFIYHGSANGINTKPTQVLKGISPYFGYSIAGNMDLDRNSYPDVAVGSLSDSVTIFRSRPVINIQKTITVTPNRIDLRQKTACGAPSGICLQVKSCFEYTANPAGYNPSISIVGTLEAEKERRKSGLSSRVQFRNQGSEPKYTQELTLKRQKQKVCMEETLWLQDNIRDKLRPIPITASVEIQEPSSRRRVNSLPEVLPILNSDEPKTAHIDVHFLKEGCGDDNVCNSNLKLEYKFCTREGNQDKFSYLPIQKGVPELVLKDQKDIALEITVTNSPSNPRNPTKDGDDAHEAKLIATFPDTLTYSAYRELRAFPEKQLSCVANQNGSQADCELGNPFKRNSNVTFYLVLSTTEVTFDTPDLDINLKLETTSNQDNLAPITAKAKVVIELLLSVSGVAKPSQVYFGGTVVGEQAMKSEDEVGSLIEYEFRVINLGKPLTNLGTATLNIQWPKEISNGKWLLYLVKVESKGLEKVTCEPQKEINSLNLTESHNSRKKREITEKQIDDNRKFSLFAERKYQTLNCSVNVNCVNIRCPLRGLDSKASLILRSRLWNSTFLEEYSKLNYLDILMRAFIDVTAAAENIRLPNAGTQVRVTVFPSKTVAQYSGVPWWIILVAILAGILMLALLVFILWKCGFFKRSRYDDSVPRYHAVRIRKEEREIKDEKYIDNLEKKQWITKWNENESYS

K562 [5] = test: Decrease in binding affinity to integrin alpha3 G163A mutant expressed in human K562 cells by flow cytometry
[6] = biological target: Integrin alpha-2 (Homo sapiens) (UniProt P17301); test: Binding affinity to integrin alpha2 expressed in human K562 cells at 1 uM for 30 mins by flow cytometry
Chain of Integrin alpha-2 (Homo sapiens) (P17301 whole entry): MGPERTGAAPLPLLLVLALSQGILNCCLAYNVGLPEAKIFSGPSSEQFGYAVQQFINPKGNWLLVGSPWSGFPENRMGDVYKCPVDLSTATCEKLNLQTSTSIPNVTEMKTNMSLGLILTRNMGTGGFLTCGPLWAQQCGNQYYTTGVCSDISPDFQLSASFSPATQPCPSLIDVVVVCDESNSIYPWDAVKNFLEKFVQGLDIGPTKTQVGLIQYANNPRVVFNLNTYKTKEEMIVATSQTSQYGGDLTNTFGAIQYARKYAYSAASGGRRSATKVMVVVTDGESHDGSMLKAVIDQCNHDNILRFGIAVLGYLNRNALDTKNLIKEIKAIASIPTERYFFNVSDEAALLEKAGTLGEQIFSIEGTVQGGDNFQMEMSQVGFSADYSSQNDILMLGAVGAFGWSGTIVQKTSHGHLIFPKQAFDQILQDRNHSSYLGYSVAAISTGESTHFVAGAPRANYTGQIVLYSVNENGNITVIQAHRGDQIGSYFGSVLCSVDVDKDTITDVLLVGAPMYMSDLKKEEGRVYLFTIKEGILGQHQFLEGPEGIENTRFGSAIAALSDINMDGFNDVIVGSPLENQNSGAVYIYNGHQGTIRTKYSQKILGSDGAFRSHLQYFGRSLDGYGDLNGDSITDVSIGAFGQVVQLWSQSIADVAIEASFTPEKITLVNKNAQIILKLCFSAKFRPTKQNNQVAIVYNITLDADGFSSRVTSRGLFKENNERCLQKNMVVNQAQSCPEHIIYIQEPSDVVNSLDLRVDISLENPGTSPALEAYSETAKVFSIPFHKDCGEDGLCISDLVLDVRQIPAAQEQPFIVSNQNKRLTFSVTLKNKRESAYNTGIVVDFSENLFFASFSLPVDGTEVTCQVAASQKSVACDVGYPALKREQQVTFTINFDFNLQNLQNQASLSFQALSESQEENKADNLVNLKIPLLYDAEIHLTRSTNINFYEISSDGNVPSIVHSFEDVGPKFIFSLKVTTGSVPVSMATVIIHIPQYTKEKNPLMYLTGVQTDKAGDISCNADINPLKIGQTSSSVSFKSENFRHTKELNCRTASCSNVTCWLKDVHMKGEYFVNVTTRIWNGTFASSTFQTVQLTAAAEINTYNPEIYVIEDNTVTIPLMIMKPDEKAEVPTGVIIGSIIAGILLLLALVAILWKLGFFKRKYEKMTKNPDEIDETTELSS

[7] = biological target: T2, Integrin alpha-9 (Homo sapiens) (UniProt Q13797); test: Binding affinity to integrin alpha9 expressed in human K562 cells at 1 uM for 30 mins by flow cytometry
T2 sequence (whole entry): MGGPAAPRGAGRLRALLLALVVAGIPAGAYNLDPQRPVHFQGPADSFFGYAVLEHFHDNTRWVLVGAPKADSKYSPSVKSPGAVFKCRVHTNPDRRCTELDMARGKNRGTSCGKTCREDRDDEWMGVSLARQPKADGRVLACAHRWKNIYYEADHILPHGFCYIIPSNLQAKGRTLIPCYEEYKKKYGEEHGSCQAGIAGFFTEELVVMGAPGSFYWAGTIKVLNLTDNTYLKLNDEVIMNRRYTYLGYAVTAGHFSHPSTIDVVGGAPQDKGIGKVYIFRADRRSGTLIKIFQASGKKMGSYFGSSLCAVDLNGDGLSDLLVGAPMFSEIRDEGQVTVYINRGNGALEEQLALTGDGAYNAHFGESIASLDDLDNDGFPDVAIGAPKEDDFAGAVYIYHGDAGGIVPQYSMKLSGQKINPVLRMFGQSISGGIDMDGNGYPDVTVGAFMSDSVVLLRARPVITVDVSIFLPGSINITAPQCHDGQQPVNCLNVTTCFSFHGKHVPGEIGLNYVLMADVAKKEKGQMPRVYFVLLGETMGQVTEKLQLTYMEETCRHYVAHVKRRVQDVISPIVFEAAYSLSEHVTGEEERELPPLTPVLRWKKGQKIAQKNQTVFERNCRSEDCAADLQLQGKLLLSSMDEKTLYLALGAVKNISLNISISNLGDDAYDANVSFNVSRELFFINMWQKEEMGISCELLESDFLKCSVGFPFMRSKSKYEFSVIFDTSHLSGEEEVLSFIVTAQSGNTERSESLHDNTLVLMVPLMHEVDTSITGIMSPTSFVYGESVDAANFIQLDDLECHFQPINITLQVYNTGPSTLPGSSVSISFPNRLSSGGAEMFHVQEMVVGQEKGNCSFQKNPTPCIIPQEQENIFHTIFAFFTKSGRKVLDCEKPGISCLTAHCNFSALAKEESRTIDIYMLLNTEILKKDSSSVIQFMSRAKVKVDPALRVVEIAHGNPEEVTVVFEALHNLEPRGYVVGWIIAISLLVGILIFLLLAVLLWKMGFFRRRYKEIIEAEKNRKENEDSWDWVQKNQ

[8] = biological target: Integrin alpha-4 (Homo sapiens) (UniProt P13612); test: Binding affinity to integrin alpha4 expressed in human K562 cells at 1 uM for 30 mins by flow cytometry
Chain of Integrin alpha-4 (Homo sapiens) (P13612 whole entry): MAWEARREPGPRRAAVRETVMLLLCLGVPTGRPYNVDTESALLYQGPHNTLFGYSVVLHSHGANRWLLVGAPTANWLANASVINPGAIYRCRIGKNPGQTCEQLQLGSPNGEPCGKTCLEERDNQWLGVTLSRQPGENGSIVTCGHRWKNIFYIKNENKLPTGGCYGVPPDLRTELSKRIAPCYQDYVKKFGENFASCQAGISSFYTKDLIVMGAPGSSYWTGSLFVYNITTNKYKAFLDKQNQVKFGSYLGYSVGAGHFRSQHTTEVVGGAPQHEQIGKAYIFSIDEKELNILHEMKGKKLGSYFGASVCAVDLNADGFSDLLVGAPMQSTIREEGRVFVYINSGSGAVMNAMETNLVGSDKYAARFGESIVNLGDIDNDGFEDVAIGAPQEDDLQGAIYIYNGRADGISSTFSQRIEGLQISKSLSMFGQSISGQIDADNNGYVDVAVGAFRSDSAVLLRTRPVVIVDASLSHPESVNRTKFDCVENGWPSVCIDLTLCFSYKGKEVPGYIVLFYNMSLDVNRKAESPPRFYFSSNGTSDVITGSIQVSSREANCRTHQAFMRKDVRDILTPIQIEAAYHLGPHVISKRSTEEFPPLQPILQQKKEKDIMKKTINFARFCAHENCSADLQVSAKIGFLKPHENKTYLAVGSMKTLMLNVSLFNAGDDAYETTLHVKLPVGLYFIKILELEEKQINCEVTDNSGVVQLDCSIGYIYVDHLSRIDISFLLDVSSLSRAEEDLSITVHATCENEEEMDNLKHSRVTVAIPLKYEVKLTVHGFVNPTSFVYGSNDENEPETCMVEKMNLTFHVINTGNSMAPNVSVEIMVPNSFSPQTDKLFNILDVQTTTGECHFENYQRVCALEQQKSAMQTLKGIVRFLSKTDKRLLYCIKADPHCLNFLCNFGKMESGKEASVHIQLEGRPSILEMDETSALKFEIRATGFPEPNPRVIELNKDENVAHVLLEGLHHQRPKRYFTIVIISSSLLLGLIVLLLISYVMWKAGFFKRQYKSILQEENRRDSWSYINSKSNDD

K562 [9] = test: Decrease in binding affinity to integrin alpha3 T162F mutant expressed in human K562 cells by flow cytometry
[10] = biological target: Integrin alpha-1 (Homo sapiens) (UniProt P56199); test: Binding affinity to integrin alpha1 expressed in human K562 cells at 1 uM for 30 mins by flow cytometry
Chain of Integrin alpha-1 (Homo sapiens) (P56199 whole entry): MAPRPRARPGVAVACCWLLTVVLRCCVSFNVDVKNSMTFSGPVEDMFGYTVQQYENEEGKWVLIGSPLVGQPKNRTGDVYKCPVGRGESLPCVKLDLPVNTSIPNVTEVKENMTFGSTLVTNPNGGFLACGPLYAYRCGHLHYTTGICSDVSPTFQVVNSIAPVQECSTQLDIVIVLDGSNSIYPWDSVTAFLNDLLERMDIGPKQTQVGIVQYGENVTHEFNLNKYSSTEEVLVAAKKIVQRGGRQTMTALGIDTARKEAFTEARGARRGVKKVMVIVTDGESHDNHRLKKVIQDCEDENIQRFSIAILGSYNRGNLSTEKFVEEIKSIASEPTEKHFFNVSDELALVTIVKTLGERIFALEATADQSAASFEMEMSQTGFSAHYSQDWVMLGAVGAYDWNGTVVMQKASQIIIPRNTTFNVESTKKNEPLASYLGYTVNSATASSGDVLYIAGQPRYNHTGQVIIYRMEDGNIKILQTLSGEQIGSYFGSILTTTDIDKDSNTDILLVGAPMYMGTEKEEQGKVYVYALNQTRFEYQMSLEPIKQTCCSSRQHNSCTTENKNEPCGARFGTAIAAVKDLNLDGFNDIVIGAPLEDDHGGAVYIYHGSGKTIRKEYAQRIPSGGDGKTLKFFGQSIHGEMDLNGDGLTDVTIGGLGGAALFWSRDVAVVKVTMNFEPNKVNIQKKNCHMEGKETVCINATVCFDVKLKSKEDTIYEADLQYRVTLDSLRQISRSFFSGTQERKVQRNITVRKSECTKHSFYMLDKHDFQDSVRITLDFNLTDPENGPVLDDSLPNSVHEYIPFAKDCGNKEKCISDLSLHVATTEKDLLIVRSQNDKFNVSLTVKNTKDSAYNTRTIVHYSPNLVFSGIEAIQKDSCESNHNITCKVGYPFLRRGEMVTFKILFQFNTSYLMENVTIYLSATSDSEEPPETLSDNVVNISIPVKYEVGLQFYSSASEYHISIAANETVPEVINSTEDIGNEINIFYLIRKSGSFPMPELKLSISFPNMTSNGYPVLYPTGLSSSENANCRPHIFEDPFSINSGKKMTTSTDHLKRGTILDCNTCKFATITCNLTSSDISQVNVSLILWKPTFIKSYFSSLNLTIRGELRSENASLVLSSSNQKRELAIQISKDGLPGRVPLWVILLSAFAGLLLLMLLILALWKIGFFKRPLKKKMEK

K562 [11] = test: Decrease in binding affinity to integrin alpha3 D15A mutant expressed in human K562 cells by flow cytometry
[12] = biological target: Integrin alpha-V/beta-3 (Homo sapiens) (UniProt P05106+P06756); test: Binding affinity to integrin alphaVbeta3 expressed in human K562 cells at 1 uM for 30 mins by flow cytometry
[13] = biological target: Integrin alpha-5 (Homo sapiens) (UniProt P08648); test: Binding affinity to integrin alpha5 in human K562 cells at 1 uM for 30 mins by flow cytometry
Chain of Integrin alpha-5 (Homo sapiens) (P08648 42-894 limits assumed): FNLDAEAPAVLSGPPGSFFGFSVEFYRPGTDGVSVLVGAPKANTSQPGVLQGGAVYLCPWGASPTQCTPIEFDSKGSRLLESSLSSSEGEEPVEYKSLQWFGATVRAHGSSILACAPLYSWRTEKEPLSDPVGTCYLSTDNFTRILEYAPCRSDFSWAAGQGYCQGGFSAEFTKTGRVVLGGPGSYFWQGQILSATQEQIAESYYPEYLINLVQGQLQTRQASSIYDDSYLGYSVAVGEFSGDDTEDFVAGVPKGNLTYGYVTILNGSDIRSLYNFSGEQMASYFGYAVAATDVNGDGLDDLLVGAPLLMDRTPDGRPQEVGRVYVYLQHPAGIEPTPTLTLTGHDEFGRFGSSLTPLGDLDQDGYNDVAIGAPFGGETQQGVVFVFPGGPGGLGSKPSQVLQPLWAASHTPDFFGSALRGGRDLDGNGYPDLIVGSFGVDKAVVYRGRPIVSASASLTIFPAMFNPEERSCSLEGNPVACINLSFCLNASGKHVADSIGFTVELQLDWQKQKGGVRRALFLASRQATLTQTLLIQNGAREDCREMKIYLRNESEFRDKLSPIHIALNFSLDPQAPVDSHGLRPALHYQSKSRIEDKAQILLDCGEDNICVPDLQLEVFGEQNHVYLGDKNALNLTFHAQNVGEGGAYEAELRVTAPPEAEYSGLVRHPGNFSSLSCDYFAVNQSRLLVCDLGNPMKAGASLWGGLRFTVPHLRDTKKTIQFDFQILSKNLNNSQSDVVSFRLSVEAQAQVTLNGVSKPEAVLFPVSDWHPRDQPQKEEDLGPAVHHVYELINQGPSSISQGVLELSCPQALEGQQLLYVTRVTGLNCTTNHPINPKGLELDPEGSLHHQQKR
Chain of Integrin alpha-5 (Homo sapiens) (P08648 895-1049 limits assumed): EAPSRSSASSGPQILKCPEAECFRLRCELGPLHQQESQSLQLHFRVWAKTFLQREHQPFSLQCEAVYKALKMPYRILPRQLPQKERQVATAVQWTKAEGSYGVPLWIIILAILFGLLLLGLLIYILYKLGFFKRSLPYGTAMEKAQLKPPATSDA

Measured: Activity

CC(C)C[C@@H]1NC(=O)CNC(=O)[C@@H](CC(=O)O)NC(=O)[C@@H](N)CSSC[C@@H](C(N)=O)NC(=O)[C@H](CC(N)=O)NC(=O)[C@@H]2C[C@@H](O)CN2C(=O)CNC1=O
inactive: all assays above
